The record followed here is US11872217B2, “Indanes as PD-L1 inhibitors” (CHEMOCENTRYX, INC., priority 2019, dated 2024).

A value given as a limit tells only on which side of the number the result lay.

Usually IC50 stands for the concentration that inhibits the measured activity by half.

Chain of human PD-L1 / Human PD-1 (Q9NZQ7 19-239): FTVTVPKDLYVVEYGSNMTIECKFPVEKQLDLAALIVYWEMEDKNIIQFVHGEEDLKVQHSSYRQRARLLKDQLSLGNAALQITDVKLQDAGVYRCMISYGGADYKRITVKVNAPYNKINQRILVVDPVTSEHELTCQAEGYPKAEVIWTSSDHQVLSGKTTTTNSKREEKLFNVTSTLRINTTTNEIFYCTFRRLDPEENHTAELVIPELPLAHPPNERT

This experiment addresses human PD-L1 / Human PD-1 (Homo sapiens (Human), UniProt Q9NZQ7). Nature of the experiment: Enzyme-Linked Immunosorbent Assay (ELISA), PD-1/PD-L1 binding. The note with it: plates coated with human PD-L1; biotinylated human PD-1; absorbance at 450 nm. Here is the method:
96 Well plates were coated with 1 μg/mL of human PD-L1 (obtained from R&D) in PBS overnight at 4° C. The wells were then blocked with 2% BSA in PBS (W/V) with 0.05% TWEEN-20 for 1 hour at 37° C. The plates were washed 3 times with PBS/0.05% TWEEN-20 and the compounds were serial diluted (1:5) in dilution medium and added to the ELISA plates. Human PD-1 and biotin 0.3 μg/mL (ACRO Biosystems) were added and incubated for 1 hour at 37° C. then washed 3 times with PBS/0.05% TWEEN-20. A second block was performed with 2% BSA in PBS (W/V)/0.05% TWEEN-20 for 10 min at 37° C. and the plates were washed 3 times with PBS/0.05% TWEEN-20. Streptavidin-HRP was added for 1 hour at 37° C. then the plates were washed 3 times with PBS/0.05% TWEEN-20. TMB substrate was added and reacted for 20 min at 37° C. A stop solution (2 N aqueous H2SO4) was added. The absorbance was read at 450 nm using a micro-plate spectrophotometer. The results are shown in Table 1: IC50 values are provided as follows: from 100 up to 10,000 nM (+); less than 100 nM (++).
For orientation: An ELISA detects its analyte on a solid surface through an enzyme-linked reagent.
For `CCOc1cc(O[C@@H]2c3cccc(-c4cccc(COc5cc(COC)c(CN[C@@](C)(CO)C(=O)O)cc5Cl)c4C)c3C[C@@H]2F)c(Cl)cc1CN[C@@](C)(CO)C(=O)O` (mixture of isomers) [Compound 1.020], the IC50 was less than 100 nM.

`CCOc1cc(O[C@H]2CCc3c(-c4cccc(COc5cc(COC)c(CN6CCC(OC(=O)[C@@H](N)C(C)C)CC6)cc5Cl)c4C)cccc32)c(Cl)cc1CN1CCC(OC(=O)[C@@H](N)C(C)C)CC1` [Compound 1.001] had an IC50 of 100 to 10000 nM.

`CCOc1cc(O[C@H]2CCc3c(-c4cccc5c4CC[C@@H]5Oc4cc(OCC)c(CN(C)[C@@H](CO)C(=O)O)cc4Cl)cccc32)c(Cl)cc1CN(C)[C@@H](CO)C(=O)O` [Compound 1.002] displayed a half-inhibitory concentration (IC50) of less than 100 nM.

In turn, `CCOc1cc(O[C@H]2CCc3c(-c4cccc5c4CC[C@@H]5Oc4cc(OCC)c(CN)cc4Cl)cccc32)c(Cl)cc1CN` [Compound 1.003] had a half-inhibitory concentration (IC50) of 100 to 10000 nM.

In the case of `CCOc1cc(OCc2cccc(-c3cccc4c3CC[C@@H]4Oc3cc(OCC)c(CNCCS(=O)(=O)O)cc3Cl)c2C)c(Cl)cc1CNCCS(=O)(=O)O` [Compound 1.004], the concentration for half-maximal inhibition (IC50) was less than 100 nM.

As to `CCOc1cc(O[C@H]2CCc3c(-c4cccc(COc5cc(COC)c(CN6CCC(OC(=O)C(C)C)CC6)cc5Cl)c4C)cccc32)c(Cl)cc1CN1CCC(OC(=O)C(C)C)CC1` [Compound 1.005], the 50% inhibitory concentration (IC50) was in the range of 100 to 10000 nM.

`CCOc1cc(O[C@H]2CCc3c(-c4cccc5c4CC[C@@H]5Oc4cc(OCC)c(CN(C)[C@@](C)(CO)C(=O)O)cc4Cl)cccc32)c(Cl)cc1CN(C)C[C@@H]1CCC(=O)N1` [Compound 1.006] displayed an IC50 of less than 100 nM.

`Cc1cc(CN[C@@](C)(CO)C(=O)O)ccc1OCc1cccc(-c2cccc3c2CCC3Oc2ccc(CN[C@@](C)(CO)C(=O)O)cc2C)c1C` (stereo partly shown) [Compound 1.008] displayed an IC50 of less than 100 nM.

`CCOc1cc(O[C@H]2CCc3c(-c4cccc5c4CC[C@@H]5Oc4cc(OCC)c(CN[C@H]5CCC(=O)NC5)cc4Cl)cccc32)c(Cl)cc1CN[C@H]1CCC(=O)NC1` [Compound 1.009]: the IC50 was less than 100 nM.

With `Cc1c(COc2ccc(CN[C@@](C)(CO)C(=O)O)cc2F)cccc1-c1cccc2c1CCC2Oc1ccc(CN[C@@](C)(CO)C(=O)O)cc1F` (stereo partly shown) [Compound 1.010], the concentration for half-maximal inhibition (IC50) fell in the range of 100 to 10000 nM.

In turn, `COc1cc(CN[C@@](C)(CO)C(=O)O)ccc1OCc1cccc(-c2cccc3c2CCC3Oc2ccc(CN[C@@](C)(CO)C(=O)O)cc2OC)c1C` (stereo partly shown) [Compound 1.011] returned a half-maximal inhibitory concentration (IC50) of 100 to 10000 nM.

`CCOc1cc(O[C@H]2CCc3c(-c4cccc(COc5cc(COC)c(CN(C)CCCC(=O)O)cc5Cl)c4C)cccc32)c(Cl)cc1CN(C)CCCC(=O)O` [Compound 1.012] registered an IC50 of less than 100 nM.

In turn, `CCOc1cc(O[C@H]2CCc3c(-c4cccc5c4CC[C@@H]5Oc4cc(OCC)c(CN[C@@](C)(CO)C(=O)O)cc4Cl)cccc32)c(Cl)cc1CN[C@@H]1CCC[C@@H]1O` [Compound 1.013] registered a half-maximal inhibitory concentration (IC50) of less than 100 nM.

Consider `CCOc1cc(O[C@H]2CCc3c(-c4cccc5c4CC[C@@H]5Oc4cc(OCC)c(CN[C@@H](CO)C(N)=O)cc4Cl)cccc32)c(Cl)cc1CN[C@@H](CO)C(N)=O` [Compound 1.014], for which the IC50 is less than 100 nM.

`CCOc1cc(NC2CCc3c(-c4cccc(COc5cc(OCC)c(CN(C)CCCC(=O)O)cc5Cl)c4C)cccc32)c(Cl)cc1CN(C)CCCC(=O)O` (stereo not shown) [Compound 1.015] showed an IC50 of less than 100 nM.

Take `CCOc1cc(NC2CCc3c(-c4cccc(COc5cc(OCC)c(CN(C)CCCC(=O)OC)cc5Cl)c4C)cccc32)c(Cl)cc1CN(C)CCCC(=O)OC` (stereo not shown) [Compound 1.016]: the 50% inhibitory concentration (IC50) was 100 to 10000 nM.

For the compound `N#Cc1cncc(COc2cc(O[C@H]3CCc4c(-c5cccc6c5CC[C@@H]6Oc5cc(OCc6cncc(C#N)c6)c(CNCC(=O)O)cc5Cl)cccc43)c(Cl)cc2CNCC(=O)O)c1` [Compound 1.017], the half-inhibitory concentration (IC50) is less than 100 nM.

On to `CCOc1cc(O[C@H]2CCc3c(-c4cccc5c4CC[C@@H]5Oc4cc(OCC)c(CN[C@H](CO)C(=O)O)cc4Cl)cccc32)c(Cl)cc1CN[C@H](CO)C(=O)O` [Compound 1.018], for which the IC50 is less than 100 nM.

Compound `CCOc1cc(O[C@H]2CCc3c(-c4cccc5c4CC[C@@H]5Oc4cc(OCC)c(CN(C)[C@@](C)(CO)C(=O)O)cc4Cl)cccc32)c(Cl)cc1CN(C)[C@@](C)(CO)C(=O)O` [Compound 1.019] displayed an IC50 of less than 100 nM.

`CCOc1cc(O[C@H]2CCc3c(-c4cccc5c4CC[C@@H]5Oc4cc(OCC)c(CN(C)CCCC(=O)OC)cc4Cl)cccc32)c(Cl)cc1CN(C)CCCC(=O)OC` [Compound 1.021] registered an IC50 of 100 to 10000 nM.

In the case of `CCOc1cc(O[C@H]2CCc3c(-c4cccc5c4CC[C@@H]5Oc4cc(OCC)c(CN[C@@](C)(CO)C(=O)OC)cc4Cl)cccc32)c(Cl)cc1CN[C@@](C)(CO)C(=O)OC` [Compound 1.022], the IC50 was 100 to 10000 nM.

The compound `CCOc1cc(OCc2cccc(-c3cccc4c3CCC4Oc3ccc(CN[C@@](C)(CO)C(=O)O)c(OCC)c3)c2C)ccc1CN[C@@](C)(CO)C(=O)O` (stereo partly shown) [Compound 1.023] came in with a half-inhibitory concentration (IC50) of 100 to 10000 nM.

The compound `Cc1c(COc2ccc(CN[C@@](C)(CO)C(=O)O)cc2Cl)cccc1-c1cccc2c1CCC2Oc1ccc(CN[C@@](C)(CO)C(=O)O)cc1Cl` (stereo partly shown) [Compound 1.024] showed a half-inhibitory concentration (IC50) of less than 100 nM.

In turn, `CCOc1cc(O[C@H]2CCc3c(-c4cccc5c4CC[C@@H]5Oc4cc(OCC)c(CN(C)CCCC(=O)O)cc4Cl)cccc32)c(Cl)cc1CN(C)CCCC(=O)O` [Compound 1.025] registered an IC50 of less than 100 nM.

`CCOc1cc(O[C@H]2CCc3c(-c4cccc5c4CC[C@@H]5Oc4cc(OCc5cc(C#N)cc(C#N)c5)c(CN[C@@](C)(CO)C(=O)O)cc4Cl)cccc32)c(Cl)cc1CN[C@@](C)(CO)C(=O)O` [Compound 1.026] gave a half-maximal inhibitory concentration (IC50) of less than 100 nM.

`COC(=O)CCCN(C)Cc1cc(Cl)c(O[C@H]2CCc3c(-c4cccc5c4CC[C@@H]5Oc4cc(OCc5cncc(C#N)c5)c(CN(C)CCCC(=O)OC)cc4Cl)cccc32)cc1OCc1cncc(C#N)c1` [Compound 1.027] gave a half-inhibitory concentration (IC50) of less than 100 nM.

Take `CCOc1cc(O[C@H]2CCc3c(-c4cccc5c4CC[C@@H]5Oc4cc(OCC)c(CN5CCC6(C5)NC(=O)NC6=O)cc4Cl)cccc32)c(Cl)cc1CN[C@@](C)(CO)C(=O)O` (stereo partly shown) [Compound 1.028]: the IC50 was less than 100 nM.

The compound `CCOc1cc(O[C@H]2CCc3c(-c4cccc5c4CC[C@@H]5Oc4cc(OCC)c(CN[C@H](C(=O)NS(C)(=O)=O)[C@@H](C)O)cc4Cl)cccc32)c(Cl)cc1CN[C@H](C(=O)NS(C)(=O)=O)[C@@H](C)O` [Compound 1.030] showed a half-inhibitory concentration (IC50) of less than 100 nM.

As for `CCOc1cc(O[C@H]2CCc3c(-c4cccc5c4CC[C@H]5Oc4cc(OCC)c(CN[C@@](C)(CO)C(=O)O)cc4Cl)cccc32)c(Cl)cc1CN[C@@](C)(CO)C(=O)O` [Compound 1.031], the IC50 was less than 100 nM.

The compound `CCOc1cc(O[C@H]2CCc3c(-c4cccc5c4CC[C@@H]5Oc4cc(OCC)c(CN[C@@](C)(CO)C(=O)O)cc4Cl)cccc32)c(Cl)cc1CNC[C@@H]1CCC(=O)N1` [Compound 1.032] registered an IC50 of less than 100 nM.

As to `CN(Cc1cc(Cl)c(O[C@H]2CCc3c(-c4cccc5c4CC[C@@H]5Oc4cc(OCc5cncc(C#N)c5)c(CN(C)[C@@](C)(CO)C(=O)O)cc4Cl)cccc32)cc1OCc1cncc(C#N)c1)[C@@](C)(CO)C(=O)O` [Compound 1.033], the IC50 is less than 100 nM.

The compound `CCOc1cc(O[C@H]2CCc3c(-c4cccc5c4CC[C@@H]5Oc4cc(OCC)c(CN[C@H](C(=O)OC)[C@@H](C)O)cc4Cl)cccc32)c(Cl)cc1CN[C@H](C(=O)OC)[C@@H](C)O` [Compound 1.034] gave an IC50 of 100 to 10000 nM.

For the compound `CN(CCCC(=O)O)Cc1cc(Cl)c(O[C@H]2CCc3c(-c4cccc5c4CC[C@@H]5Oc4cc(OCc5cncc(C#N)c5)c(CN(C)CCCC(=O)O)cc4Cl)cccc32)cc1OCc1cncc(C#N)c1` [Compound 1.035], the IC50 was less than 100 nM.

For `CCOc1cc(O[C@H]2CCc3c(-c4cccc(COc5cc(COC)c(CN[C@@](C)(CO)C(=O)O)cc5Cl)c4C)cccc32)c(Cl)cc1CN[C@@](C)(CO)C(=O)O` [Compound 1.036], the 50% inhibitory concentration (IC50) is less than 100 nM.

`CCOc1cc(O[C@H]2CCc3c(-c4cccc(COc5ccc(CN(C)C)cc5)c4C)cccc32)c(Cl)cc1CN[C@@](C)(CO)C(=O)O` [Compound 1.037]: the IC50 was less than 100 nM.

Take `N#Cc1cncc(COc2cc(O[C@H]3CCc4c(-c5cccc6c5CC[C@@H]6Oc5cc(OCc6cncc(C#N)c6)c(CN[C@@H](CO)C(=O)O)cc5Cl)cccc43)c(Cl)cc2CN[C@@H](CO)C(=O)O)c1` [Compound 1.038]: the IC50 was less than 100 nM.

Compound `C[C@@H](O)[C@H](NCc1cc(Cl)c(O[C@H]2CCc3c(-c4cccc5c4CC[C@@H]5Oc4cc(OCc5cncc(C#N)c5)c(CN[C@H](C(=O)O)[C@@H](C)O)cc4Cl)cccc32)cc1OCc1cncc(C#N)c1)C(=O)O` [Compound 1.039] showed an IC50 of less than 100 nM.

With `CCOc1cc(O[C@H]2CCc3c(-c4cccc5c4CC[C@@H]5Oc4cc(OCc5cncc(C#N)c5)c(CN[C@@](C)(CO)C(=O)O)cc4Cl)cccc32)c(Cl)cc1CN[C@@](C)(CO)C(=O)O` [Compound 1.040], the 50% inhibitory concentration (IC50) is less than 100 nM.

Turning to `CC(C)OC(=O)[C@](C)(CO)NCc1cc(Cl)c(O[C@H]2CCc3c(-c4cccc5c4CC[C@@H]5Oc4cc(OCc5cncc(C#N)c5)c(CN[C@@](C)(CO)C(=O)OC(C)C)cc4Cl)cccc32)cc1OCc1cncc(C#N)c1` [Compound 1.041], the 50% inhibitory concentration (IC50) was in the range of 100 to 10000 nM.

On to `CCOc1cc(O[C@H]2CCc3c(-c4cccc5c4CC[C@@H]5Oc4cc(OCC)c(CN[C@H](C(=O)O)[C@@H](C)O)cc4Cl)cccc32)c(Cl)cc1CN[C@H](C(=O)O)[C@@H](C)O` [Compound 1.042], for which the 50% inhibitory concentration (IC50) was less than 100 nM.
